Experimental data: patent US12590066B2, “Fused-heterocyclyl-carbonohydrazonoyl dicyanide compounds and use thereof” (KOREA INSTITUTE OF SCIENCE AND TECHNOLOGY, priority 2020, dated 2026)

Experiments:
[1] = biological target: T1, CYP1A2 (Homo sapiens, UniProt P05177); assay: Inhibitory effect on CYP coenzyme activity, human liver microsomes; type: in vitro ADME; settings: 10 μM compound, human liver microsomes 0.25 mg/mL, substrate phenacetin, 15 minutes
T1 construct: human liver microsomes (0.25 mg/mL); from tissue; host or cells: human liver microsomes
T1 sequence (P05177 1-516): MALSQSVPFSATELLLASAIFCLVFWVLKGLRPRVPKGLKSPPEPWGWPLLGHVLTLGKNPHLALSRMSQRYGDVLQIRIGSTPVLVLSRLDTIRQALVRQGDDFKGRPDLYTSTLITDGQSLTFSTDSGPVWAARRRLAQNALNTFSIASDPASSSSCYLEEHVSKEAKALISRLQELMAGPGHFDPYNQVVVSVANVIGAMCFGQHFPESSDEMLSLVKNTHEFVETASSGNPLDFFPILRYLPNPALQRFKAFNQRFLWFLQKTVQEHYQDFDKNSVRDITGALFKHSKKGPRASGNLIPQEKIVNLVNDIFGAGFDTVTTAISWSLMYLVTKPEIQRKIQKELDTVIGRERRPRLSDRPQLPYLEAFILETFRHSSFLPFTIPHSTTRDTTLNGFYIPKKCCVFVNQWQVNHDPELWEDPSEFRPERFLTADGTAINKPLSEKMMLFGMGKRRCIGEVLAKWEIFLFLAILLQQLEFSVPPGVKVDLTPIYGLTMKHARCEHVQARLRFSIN
Experimental: (§1) The inhibitory effects of the compounds prepared according to Examples 1 to 57 on CYP coenzyme activity were identified. Specifically, human liver microsomes (0.25 mg/mL), a 0.1 M phosphate buffer solution (pH 7.4), a substrate drug cocktail of five types of drug metabolism enzymes (50 μM phenacetin, 10 μM diclofenac, 100 μM S-mephenytoin, 5 μM dextromethorphan, and 2.5 μM midazolam), and the compound at a concentration of 0 μM or 10 μM were mixed and pre-cultured at 37° C. for 5 minutes, and then further cultured at 37° C. for 15 minutes together with an NADPH generation system solution added thereto. Thereafter, the reaction was terminated by adding an acetonitrile solution containing an internal standard material (terfenadine) and centrifuged for 5 minutes (14,000 rpm, 4° C.), and then a supernatant was injected into an LC-MS/MS system for simultaneous analysis of metabolites of the substrate drugs to thereby evaluate the inhibitory effects on drug metabolism.
(§2) Metabolites of each CYP coenzyme indicator drug generated through the reaction were analyzed using the Shimadzu Nexera XR system and TSQ Vantage (Thermo). In an HPLC column, Kinetex C18 (2.1 mm×100 mm, 2.6 μm, particle size; Phenomenex, USA) was used, and mobile phases were (A) distilled water containing 0.1% formic acid and (B) acetonitrile containing 0.1% formic acid, and a gradient program shown in Table 3 was applied thereto.
(§3) The generated metabolites were quantified using a multiple reaction monitoring (MRM) quantification mode, and Xcalibur (version 1.6.1) was used for data analysis. In order to express inhibitory effects of the novel compound prepared according to the examples of the present invention on CYP coenzyme activity, CYP coenzyme activities (%) with respect to the control group not treated with the compound are shown in Table 4 below.

[2] = biological target: T2, CYP3A4 (Homo sapiens, UniProt P08684); assay: as above; type: in vitro ADME; settings: 10 μM compound, human liver microsomes 0.25 mg/mL, substrate midazolam, 15 minutes
T2 construct: human liver microsomes (0.25 mg/mL); from tissue; host or cells: human liver microsomes
Experimental: as §1, §2, §3

[3] = biological target: T3, CYP2C19 (Homo sapiens, UniProt P33261); assay: as above; type: in vitro ADME; settings: 10 μM compound, human liver microsomes 0.25 mg/mL, substrate S-mephenytoin, 15 minutes
T3 construct: human liver microsomes (0.25 mg/mL); from tissue; host or cells: human liver microsomes
Experimental: as §1, §2, §3

[4] = biological target: T4, CYP2C9 (Homo sapiens, UniProt P11712); assay: as above; type: in vitro ADME; settings: 10 μM compound, human liver microsomes 0.25 mg/mL, substrate diclofenac, 15 minutes
T4 construct: human liver microsomes (0.25 mg/mL); from tissue; host or cells: human liver microsomes
Experimental: as §1, §2, §3

[5] = biological target: T5, CYP2D6 (Homo sapiens, UniProt P10635); assay: as above; type: in vitro ADME; settings: 10 μM compound, human liver microsomes 0.25 mg/mL, substrate dextromethorphan, 15 minutes
T5 construct: human liver microsomes (0.25 mg/mL); from tissue; host or cells: human liver microsomes
Experimental: as §1, §2, §3

[6] = biological target: T6, tau protein (Homo sapiens, UniProt P10636); assay: Tau-BiFC cell model, inhibition of Forskolin-induced tau protein aggregation; type: cell-based; settings: Forskolin 30 μM, 48 hours; for Tau BiFC in cells Response (% @10 μM): 10 μM compound, Forskolin-only group = 100% tau protein-aggregated state; for IC50: tau-BiFC cells
T6 construct: BiFC fluorescent-protein fragments (type and halves not specified); expressed in transfected cells
Experimental: In order to select novel tau protein aggregation-inhibiting substances, tau-BiFC cell model, in which formation of tau oligomers in living cells is easily observed, was used. Tau-BiFC cells were aliquoted into a 384-well plate. On the next day, the cells were treated with each of the compounds prepared according to Examples 1 to 57 at concentrations of 1 μM, 3 μM, and 10 μM, together with Forskolin (at a treatment concentration of 30 μM), which is a compound inducing tau protein aggregation by activating tau phosphorylase PKA. After 48 hours, nuclei in the cells were stained using Hoechst (at a treatment concentration of 2 μg/mL), and BiFC fluorescence intensity was automatically measured using Operetta (PerkinElmer) to count stained nuclei in each well out of the entire well plate. The group treated only with Forskolin, which induces tau protein aggregation, was set to a reference point of a 100% tau protein-aggregated state, and the effects of the compounds were confirmed using the equation “BiFC fluorescence intensity due to compound synthesized according to embodiment of present invention/(fluorescence intensity of control group treated only with Forskolin inducing tau protein aggregation−fluorescence intensity of untreated control group)×100”. Furthermore, the degree of cytotoxicity induced by the newly synthesized compound was also measured based on the 100% cell viability of the group treated only with Forskolin as a reference, and the cytotoxicity value of each compound was calculated using the equation “(number of stained nuclei in group treated with compound/number of stained nuclei in group treated with Forskolin)×100”. Based on the treatment results, substances inhibiting intracellular tau protein aggregation were selected from a series of candidate groups showing a tau protein aggregation inhibition rate of 70% or more and cell viability of 100% at a compound treatment concentration of 10 μM or more.
In order to evaluate dose-dependent tau protein aggregation inhibition effects of the compounds selected according to Experimental Example 1 on tau protein aggregation, tau-BiFC cells were treated with the selected compounds at concentrations of 0.03 μM, […], 0.3 μM, 1 μM, 3 μM, 10 μM, and 30 μM, respectively, together with Forskolin (at a treatment concentration of 30 μM), which is a tau protein aggregation-inducing substance. After 48 hours, tau protein aggregation reaction and degrees of cytotoxicity were analyzed by observing images of the cells. IC50 and toxicity of the compounds were analyzed by way of nonlinear regression analysis of prism software (Graph Pad).

T6 sequence (P10636 1-441 isoform P10636-8): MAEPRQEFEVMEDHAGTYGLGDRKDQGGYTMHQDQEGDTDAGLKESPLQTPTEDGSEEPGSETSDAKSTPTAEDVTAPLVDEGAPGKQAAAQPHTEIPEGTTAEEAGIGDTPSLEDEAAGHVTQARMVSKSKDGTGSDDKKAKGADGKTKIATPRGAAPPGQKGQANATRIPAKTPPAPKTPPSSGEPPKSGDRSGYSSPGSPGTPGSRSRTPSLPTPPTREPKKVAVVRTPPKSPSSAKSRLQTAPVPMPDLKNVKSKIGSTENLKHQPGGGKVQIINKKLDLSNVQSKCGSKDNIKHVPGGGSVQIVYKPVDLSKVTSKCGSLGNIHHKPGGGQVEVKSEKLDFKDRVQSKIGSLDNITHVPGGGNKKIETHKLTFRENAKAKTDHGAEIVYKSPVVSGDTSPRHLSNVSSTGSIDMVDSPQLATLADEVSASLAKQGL
T3 sequence (P33261 whole entry): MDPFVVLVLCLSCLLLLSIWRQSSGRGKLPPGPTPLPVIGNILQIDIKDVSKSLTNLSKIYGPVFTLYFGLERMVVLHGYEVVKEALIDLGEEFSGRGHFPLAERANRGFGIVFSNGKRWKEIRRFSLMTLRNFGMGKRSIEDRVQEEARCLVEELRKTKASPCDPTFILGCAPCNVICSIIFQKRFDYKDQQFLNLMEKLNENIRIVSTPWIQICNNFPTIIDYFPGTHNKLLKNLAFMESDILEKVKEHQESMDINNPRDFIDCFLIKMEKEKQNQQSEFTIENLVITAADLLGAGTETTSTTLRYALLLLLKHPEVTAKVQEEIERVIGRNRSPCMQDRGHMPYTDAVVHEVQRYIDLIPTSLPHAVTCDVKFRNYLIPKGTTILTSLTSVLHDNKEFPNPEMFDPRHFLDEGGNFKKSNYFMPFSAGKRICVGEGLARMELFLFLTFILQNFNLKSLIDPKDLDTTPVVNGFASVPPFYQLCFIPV
T4 sequence (P11712 whole entry): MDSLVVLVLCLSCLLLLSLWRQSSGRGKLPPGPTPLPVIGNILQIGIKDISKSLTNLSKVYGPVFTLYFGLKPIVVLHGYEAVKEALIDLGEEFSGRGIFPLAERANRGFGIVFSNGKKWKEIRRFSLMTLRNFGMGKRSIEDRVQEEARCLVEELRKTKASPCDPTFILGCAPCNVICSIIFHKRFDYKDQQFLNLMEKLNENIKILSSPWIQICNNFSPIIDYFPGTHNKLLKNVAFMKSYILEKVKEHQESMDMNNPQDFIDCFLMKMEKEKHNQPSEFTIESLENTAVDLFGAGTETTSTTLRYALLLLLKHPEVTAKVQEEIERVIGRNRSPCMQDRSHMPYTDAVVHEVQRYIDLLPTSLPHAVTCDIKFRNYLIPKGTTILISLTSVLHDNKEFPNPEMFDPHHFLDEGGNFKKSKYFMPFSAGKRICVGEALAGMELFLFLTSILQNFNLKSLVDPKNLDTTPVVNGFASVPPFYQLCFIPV
T5 sequence (P10635 whole entry): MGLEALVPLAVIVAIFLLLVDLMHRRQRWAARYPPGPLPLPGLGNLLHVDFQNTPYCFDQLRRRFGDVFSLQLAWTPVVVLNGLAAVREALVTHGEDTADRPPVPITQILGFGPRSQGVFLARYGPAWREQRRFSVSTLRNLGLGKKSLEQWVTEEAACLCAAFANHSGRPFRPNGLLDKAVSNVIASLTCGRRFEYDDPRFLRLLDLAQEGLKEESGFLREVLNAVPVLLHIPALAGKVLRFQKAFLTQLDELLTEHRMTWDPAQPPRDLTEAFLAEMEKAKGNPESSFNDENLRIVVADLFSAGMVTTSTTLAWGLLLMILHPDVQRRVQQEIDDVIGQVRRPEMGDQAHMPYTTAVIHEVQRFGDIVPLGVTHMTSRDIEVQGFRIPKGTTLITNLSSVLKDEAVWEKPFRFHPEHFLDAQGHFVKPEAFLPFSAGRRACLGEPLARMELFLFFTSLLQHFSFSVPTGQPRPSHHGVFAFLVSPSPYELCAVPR
T2 sequence (P08684 whole entry): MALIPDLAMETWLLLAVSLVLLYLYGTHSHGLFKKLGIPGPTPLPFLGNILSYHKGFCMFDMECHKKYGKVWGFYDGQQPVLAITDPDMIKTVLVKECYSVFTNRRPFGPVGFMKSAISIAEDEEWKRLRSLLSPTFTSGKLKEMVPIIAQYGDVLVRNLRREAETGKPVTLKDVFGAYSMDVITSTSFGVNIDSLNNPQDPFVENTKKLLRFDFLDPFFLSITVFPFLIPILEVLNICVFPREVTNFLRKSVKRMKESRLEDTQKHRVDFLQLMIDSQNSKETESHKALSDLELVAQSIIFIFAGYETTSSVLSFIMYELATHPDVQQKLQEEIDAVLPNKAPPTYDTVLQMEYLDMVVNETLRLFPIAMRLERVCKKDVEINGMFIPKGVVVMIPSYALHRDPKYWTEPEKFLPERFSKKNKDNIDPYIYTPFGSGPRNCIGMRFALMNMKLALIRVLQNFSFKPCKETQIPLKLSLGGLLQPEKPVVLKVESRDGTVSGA

SMILES	CYP1A2 coenzyme activity (%) with respect to control group not treated [1]	CYP3A4 coenzyme activity (%) with respect to control group not treated [2]	CYP2C19 coenzyme activity (%) with respect to control group not treated [3]	CYP2C9 coenzyme activity (%) with respect to control group not treated [4]	CYP2D6 coenzyme activity (%) with respect to control group not treated [5]	Tau BiFC in cells Response (% @10 μM) [6]	IC50 [6]
Cn1c(=O)n(C)c2c(Cl)cc(NN=C(C#N)C#N)cc21 [Compound 11, (7-chloro-1,3-dimethyl-2-oxo-2,3-dihydro-1H-benzo[d]imidazol-5-yl)carbonohydrazonoyl dicyanide]	73.7%	>100%	88.4%	45.8%	>100%	0%	100 nM
CC(C)n1ccc2ccc(NN=C(C#N)C#N)cc2c1=O [Compound 3, (2-isopropyl-1-oxo-1,2-dihydroisoquinolin-7-yl)carbonohydrazonoyl dicyanide]	50.2%	>100%	98.2%	78.5%	>100%	0%	200 nM
N#CC(C#N)=NNc1ccc2[nH]c(=O)oc2c1 [Compound 15, (2-oxo-2,3-dihydrobenzo[d]oxazol-6-yl)carbonohydrazonoyl dicyanide]	87.3%	98.3%	90.3%	59.4%	>100%	5.5%	8400 nM
CC(C)n1c(=O)n(C2CC2)c2ncc(NN=C(C#N)C#N)cc21 [Compound 53, (3-cyclopropyl-1-isopropyl-2-oxo-2,3-dihydro-1H-imidazo[4,5-b]pyridin-6-yl)carbonohydrazonoyl dicyanide]	>100%	97.8%	>100%	75.3%	>100%	−39%	160 nM
CC(C)n1c(=O)n(C(C)C)c2cc(NN=C(C#N)C#N)ccc21 [Compound 23, (1,3-diisopropyl-2-oxo-2,3-dihydro-1H-benzo[d]imidazol-5-yl)carbonohydrazonoyl dicyanide]	83.2%	79.6%	69.7%	46.4%	95.3%	0%	100 nM
Cn1c(=O)[nH]c2cc(NN=C(C#N)C#N)ccc21 [Compound 17, (1-methyl-2-oxo-2,3-dihydro-1H-benzo[d]imidazol-5-yl)carbonohydrazonoyl dicyanide]	32.1%	89%	80.4%	81.2%	87.1%	0%	1200 nM
CC(C)n1c(=O)n(C2CC2)c2ccc(NN=C(C#N)C#N)cc21 [Compound 42, (1-cyclopropyl-3-isopropyl-2-oxo-2,3-dihydro-1H-benzo[d]imidazol-5-yl)carbonohydrazonoyl dicyanide]	91.9%	93.5%	>100%	59.6%	>100%	−52%	80 nM
N#CC(C#N)=NNc1cccc2c(=O)[nH]ccc12 [Compound 4, (1-oxo-1,2-dihydroisoquinolin-5-yl)carbonohydrazonoyl dicyanide]	85.3%	81.6%	89.7%	59.3%	91.1%	0%	1800 nM
CC(C)n1c(=O)oc2ccc(NN=C(C#N)C#N)cc21 [Compound 29, (3-isopropyl-2-oxo-2,3-dihydrobenzo[d]oxazol-5-yl)carbonohydrazonoyl dicyanide]	97.3%	>100%	91.3%	4.7%	94.2%	−31%	70 nM
N#CC(C#N)=NNc1ccc2c(c1)oc(=O)n2C(F)F [Compound 21, (3-(difluoromethyl)-2-oxo-2,3-dihydrobenzo[d]oxazol-6-yl)carbonohydrazonoyl dicyanide]	79.6%	90.4%	83.7%	64.4%	89.1%	0%	600 nM
